Among the data in DBAASP are MIC values, retold here.

Test systems include Escherichia coli UB1005; Ralstonia pickettii; Staphylococcus aureus; Candida albicans; Pseudomonas fluorescens; Trypanosoma cruzi; Escherichia coli BL21; Escherichia coli INV-a; Escherichia coli JM109; Pseudomonas aeruginosa; Salmonella enterica; Citrobacter koseri; Staphylococcus xylosus; Klebsiella pneumoniae; Aspergillus fumigatus; Bibersteinia trehalosi; Pasteurella multocida.

What all share (assay): ≥ marks a high value that may be exact or a test limit, other limits are often not marked, values filed in µg/mL are converted to µM
Assay [1] has as its system Pseudomonas aeruginosa PAO1.
Assay [2] relates to Pseudomonas aeruginosa M76.
For assay [3], the system named is Achromobacter xylosoxidans.
In assay [4] the test system is Pseudomonas aeruginosa M1426.
For assay [5], the system named is Pseudomonas aeruginosa R70.
Assay [6] concerns Stenotrophomonas maltophilia.
Assay [7] relates to Pseudomonas aeruginosa M917.
The test system of assay [8] is Salmonella enterica serovar Typhimurium.
For assay [9], the system named is Pseudomonas aeruginosa M1251.
In assay [10] the test system is Lactococcus lactis MG1363.
Assay [11] concerns Staphylococcus aureus ATCC 2592.
Assay [12] has as its system Salmonella typhimurium CCRC 12947.
The subject of assay [13] is Klebsiella pneumoniae CCRC 10694.
For assay [14], the system named is Staphylococcus aureus CCRC 12652.
The subject of assay [15] is Candida albicans ATCC 2002.
For assay [16], the system named is Staphylococcus aureus CCRC 15211.
For assay [17], the system named is Escherichia coli ATCC 25922.
Assay [18] relates to Vibrio parahaemolyticus CCRC 10806.
For assay [19], the system named is Streptococcus alactolyticus.
Assay [20] relates to Mannheimia haemolytica Serovar 2.
The test system of assay [21] is Salmonella enterica subsp. arizonae.
Assay [22] has as its system Mannheimia haemolytica Serovar 6.
Assay [23] has as its system Mannheimia haemolytica Serovar 1.
Assay [24] has as its system Corynebacterium pseudotuberculosis ATCC 19410.
The test system of assay [25] is Pseudomonas aeruginosa K799.
The test system of assay [26] is Pseudomonas aeruginosa H547.
The test system of assay [27] is Pseudomonas aeruginosa H374.
Assay [28] relates to Pseudomonas aeruginosa H744.
For assay [29], the system named is Salmonella enterica subsp. enterica serovar Typhimurium ATCC 14028s.
Assay [30] relates to Pseudomonas aeruginosa Z61.

Each structure is given as a SMILES string. In brackets after ≈: the same amount, converted by molar mass.

With `CC(C)C[C@H](NC(=O)[C@H](C)NC(=O)[C@H](CCCCN)NC(=O)[C@H](CCCCN)NC(=O)[C@H](C)NC(=O)[C@H](CC(C)C)NC(=O)[C@H](CCCCN)NC(=O)[C@H](CCCCN)NC(=O)[C@H](CC(C)C)NC(=O)[C@H](CCCCN)NC(=O)[C@H](CCCCN)NC(=O)[C@H](CC(C)C)NC(=O)[C@H](CC(C)C)NC(=O)[C@H](CCCCN)NC(=O)[C@H](CCCCN)NC(=O)[C@H](CC(C)C)NC(=O)[C@H](C)NC(=O)[C@H](CCCCN)NC(=O)[C@H](CC(C)C)NC(=O)[C@H](C)NC(=O)[C@H](CC(C)C)NC(=O)[C@H](C)NC(=O)[C@@H](N)Cc1ccccc1)C(N)=O` [FALALKALKKLLKKLKKLAKKAL], the MIC amounted to 3.1 µM (≈ 8 µg/mL) in assay [1]; 1.55 µM (≈ 4 µg/mL) with Escherichia coli UB1005; 12.4 µM (≈ 32 µg/mL) in assay [2]; 1.55 µM (≈ 4 µg/mL) in the assay on Ralstonia pickettii; 3.1 µM (≈ 8 µg/mL) against Staphylococcus aureus; 12.4 µM (≈ 32 µg/mL) in assay [3]. Also, the MIC in assay [4] was 6.2 µM (≈ 16 µg/mL); in the assay with Candida albicans it was 24.8 µM (≈ 64 µg/mL); in [5] it was 6.2 µM (≈ 16 µg/mL); in assay [6], 1.55 µM (≈ 4 µg/mL); in [7] it was not below 49.6 µM; in assay [8], 3.1 µM (≈ 8 µg/mL). Also, the minimum inhibitory concentration (MIC) with Pseudomonas fluorescens is 3.1 µM (≈ 8 µg/mL); in assay [9], 6.2 µM (≈ 16 µg/mL).
`CC[C@H](C)[C@H](NC(=O)[C@H](C)NC(=O)[C@H](CO)NC(=O)[C@@H](NC(=O)[C@H](C)NC(=O)[C@H](CC(N)=O)NC(=O)[C@@H](NC(=O)[C@H](C)NC(=O)[C@H](Cc1cnc[nH]1)NC(=O)[C@@H]1CCCN1C(=O)[C@@H](NC(=O)[C@H](CC(C)C)NC(=O)[C@H](CO)NC(=O)[C@H](CC(C)C)NC(=O)[C@@H](N)Cc1ccccc1)[C@@H](C)CC)[C@@H](C)CC)C(C)C)C(=O)N[C@@H](C)C(=O)N[C@@H](CCCCN)C(=O)N[C@@H](Cc1cnc[nH]1)C(=O)N[C@@H](CO)C(N)=O` [FLSLIPHAINAVSAIAKHS]: the MIC against Trypanosoma cruzi came to 15.1 µM (≈ 30 µg/mL).
Turning to `CC[C@H](C)[C@H](N)C(=O)N[C@@H](CC(N)=O)C(=O)N[C@@H](Cc1c[nH]c2ccccc12)C(=O)N[C@@H](CCCCN)C(=O)NCC(=O)N[C@H](C(=O)N[C@@H](C)C(=O)N[C@@H](C)C(=O)N[C@@H](CCSC)C(=O)N[C@@H](C)C(=O)N[C@@H](CCCCN)C(=O)N[C@@H](CCCCN)C(=O)N[C@@H](CC(C)C)C(=O)N[C@@H](CC(C)C)C(N)=O)[C@@H](C)CC` [INWKGIAAMAKKLL], the minimal inhibitory concentration (MIC) in assay [10] stood at 2.5 µM (≈ 3.89 µg/mL); in the assay with Escherichia coli BL21 it was 5.14 µM (≈ 8 µg/mL); in assay [11], 2.38 µM (≈ 3.7 µg/mL); against Escherichia coli INV-a, 8 µM (≈ 12.4 µg/mL); in the assay with Escherichia coli JM109, 5.14 µM (≈ 8 µg/mL); against Pseudomonas aeruginosa, 164 µM (≈ 256 µg/mL). Besides, the minimal inhibitory concentration (MIC) was 20.6 µM (≈ 32 µg/mL) in [12]; not below 41.1 µM in [13]; 20.6 µM (≈ 32 µg/mL) in [14]; 20.6 µM (≈ 32 µg/mL) against Salmonella enterica; 2.38 µM (≈ 3.7 µg/mL) in assay [15]; 2.57 µM (≈ 4 µg/mL) with Citrobacter koseri. Also, the MIC in [16] is not below 41.1 µM; in assay [17] it was 4.82 µM (≈ 7.5 µg/mL); in assay [18], 20.6 µM (≈ 32 µg/mL); in [19] it was 10.3 µM (≈ 16 µg/mL); against Staphylococcus xylosus it was 1.93 µM (≈ 3 µg/mL).
With `CC[C@H](C)[C@H](NC(=O)[C@H](Cc1cnc[nH]1)NC(=O)[C@@H](NC(=O)[C@@H](NC(=O)[C@H](CCCCN)NC(=O)[C@H](CCCN=C(N)N)NC(=O)[C@@H](NC(=O)[C@@H](NC(=O)[C@H](CCCN=C(N)N)NC(=O)[C@@H](N)CCCN=C(N)N)[C@@H](C)CC)[C@@H](C)CC)[C@@H](C)CC)[C@@H](C)CC)C(=O)N[C@H](C(=O)N[C@@H](CCCCN)C(=O)N[C@@H](CCCCN)C(N)=O)[C@@H](C)CC` [RRIIRKIIHIIKK], the MIC was 2.73 µM (≈ 4.6 µg/mL) in [20]; 0.356 µM (≈ 0.6 µg/mL) in [1]; 11.9 µM (≈ 20 µg/mL) in [21]; 2.49 µM (≈ 4.2 µg/mL) in [22]; 4.92 µM (≈ 8.3 µg/mL) in assay [23]; more than 11.9 µM in the assay on Staphylococcus aureus. Further, the minimal inhibitory concentration (MIC) in the assay with Klebsiella pneumoniae is more than 11.9 µM; with Aspergillus fumigatus it was 3.44 µM (≈ 5.8 µg/mL); with Bibersteinia trehalosi it was 11.9 µM (≈ 20 µg/mL); with Pasteurella multocida, 11.9 µM (≈ 20 µg/mL); in assay [24], 11.9 µM (≈ 20 µg/mL).
Consider `CC[C@H](C)[C@H](NC(=O)[C@H](Cc1ccccc1)NC(=O)[C@H](CO)NC(=O)[C@H](CCCCN)NC(=O)[C@H](Cc1ccccc1)NC(=O)[C@@H](NC(=O)[C@H](CCCCN)NC(=O)[C@@H](N)Cc1c[nH]c2ccccc12)C(C)C)C(=O)N[C@@H](CCCCN)C(=O)N[C@@H](CCCCN)C(=O)N[C@@H](C)C(=O)N[C@@H](CO)C(=O)N[C@@H](CO)C(=O)N[C@@H](Cc1ccccc1)C(=O)N[C@@H](C)C(=O)N[C@@H](CCC(N)=O)C(=O)N[C@@H](CO)C(=O)N[C@H](C(=O)N[C@@H](CC(C)C)C(=O)N[C@@H](CC(=O)O)C(=O)O)C(C)C` [WKVFKSFIKKASSFAQSVLD], for which the MIC in [25] worked out at 27.6 µM (≈ 64 µg/mL); in [26], 27.6 µM (≈ 64 µg/mL); against Escherichia coli UB1005 it was 4.75 µM (≈ 11 µg/mL); in assay [27], 27.6 µM (≈ 64 µg/mL); in [28], 27.6 µM (≈ 64 µg/mL); in [29], 27.6 µM (≈ 64 µg/mL). In [30], this molecule showed a minimum inhibitory concentration (MIC) of 27.6 µM (≈ 64 µg/mL).

One may read the MIC as the smallest concentration in the dilution series that meets the test's criterion for growth inhibition.
